Results published in patent US4243681A, “Alkylthiophenoxypropanolamines and pharmaceutical compositions and uses thereof” (priority 1979, dated 1981).
Structures can show the parent of a compound that is named as a salt.

Experiments:
adrenergic beta-receptor = molecular target: T1, adrenergic beta-receptor (Cavia porcellus, UniProt Q8K4Z4); assay: Beta-adrenergic blocking activity in the isolated guinea pig trachea (isoproterenol); type: cell-based; details: for Beta-Adrenergic Blocking Potency: potency relative to propanol (equals one), isoproterenol 0.1 mcg./ml.
T1 construct: Tracheas excised from adult guinea pigs; from tissue; host or cells: guinea pig trachea (spirally cut segments)
Experimental: Test Method. […] The lower end of a tracheal segment is fixed to a stationary glass rod and the upper end is threaded to an isometric tension transducer. Changes in the spontaneous tonus of the tracheal smooth muscle are monitored via the transducer and recorded continuously on an electronic recorder. Adrenergic beta-receptor blocking activity is determined by the ability of a test agent to inhibit the response of the isolated tissue to the adrenergic beta-stimulant "isoproterenol" at a concentration of 0.1 mcg./ml. bath fluid. The tissues are exposed to the test agent solution for a 15-min. interval prior to the addition of isoproterenol to the bath fluid. Beta-receptor blocking potency of a test drug is ascertained from concentration-response relationships wherein the response is expressed as a percent inhibition of isoproterenol-induced tissue response. […] Each drug solution is added to the tissue bathing medium at a constant volume of 0.2 ml./ml. of bath fluid and only one test drug concentration is employed for an individual tissue segment. Potency of the test agent relative to that of the beta-adrenergic blocking agent "propanolol" as a reference standard is assessed by comparing the IC50 values.

[1] = system: human platelet-rich plasma; assay: Inhibition of platelet aggregation in vitro (ADP or collagen induced; antithrombogenic activity); type: cell-based; details: for ED50 ADP (inhibition of platelet aggregation): aggregation induced by 1 mcg. ADP; for ED50 Coll (inhibition of platelet aggregation): minimal amount of collagen producing maximal aggregation
Experimental: Test Method. A method similar to that described in Born, Nature 194, 927 (1962) and O'Brien, J. Clinical Pathology 15, 446 (1962). This test comprises a nephelometric method in which the change in turbidity of a specimen of human platelet-rich plasma is measured on causation of platelet aggregation by addition of adenosine diphosphate (ADP) or collagen as the thrombogenic inducing agent. An increase in transmittance light occurs when the thrombogenic agent is added to the specimen of platelet-rich plasm due to clumping of platelets. Efficacy of the test compound is determined by ability to prevent the clumping and concommitant increase in transmittance. Various concentrations of the test agent are tested and that concentration causing a 50% reduction in the thrombogenic response is determined from a concentration-response curve.

perfused dog hind limb = assay: Peripheral vasodilator activity, perfused dog hind limb (anesthetized dog); type: in vivo; details: for pressure reduction (findings, range over compounds): infusion dose 1.0 mg./min.
Experimental: Test Method. Mongrol dogs of either sex weighing between 11 and 16 kg., each, were anesthetized with pentobarbital (30 mg./kg.) administered intravenously. The left brachial vein was cannulated and pentobarbital infused continuously throughout the experiment at a rate of 5 mg./kg./hr. A tracheotomy was performed and dogs ventilated mechanically with room air at a rate of 18 strokes/min. and a volume equivalent to 20 ml./kg. The vagi were sectioned bilaterally in the mid-cervical region of the neck. The right brachial vein and artery were cannulated to inject drugs and to monitor blood pressure via a Statham pressure transducer, respectively. All measurements were recorded on a Beckman-Offner dynograph. The abdominal aorta was exposed through midline incision and a loose ligature placed around the aorta distal to the left renal artery. The right (donor) and left (recipient) femoral arteries were exposed for cannulation and subsequent hind-limb perfursion. Following intravenous administration of heparin (5 mg/kg.) and gallamine triethiodide (2 mg./kg.), the right femoral artery was cannulated and the tip of the catheter advanced into the abdominal aorta to the level of the renal arteries. The left femoral artery was cannulated and the hind-limb perfused using a Harvard Perfusion pump. The ligature previously placed around the aorta was subsequently tied to minimize collateral circulation. […] Perfusion pressure, measured at a point distal to the perfusion pump was set equal to 150 mm Hg. by adjusting pump speed. Blood flow to the limb was determined volumetrically at the conclusion of the experiment. The test agent was administered by infusion at a rate of from 0.1-1.0 mg./min. for a six-minute period and maximum reduction in pressure determined. One to three animals were employed per test agent. […] This protocol precludes effects resulting from animal variation thus permitting a direct side-by-side comparison of vasodilating activity.

rabbit thoracic aorta = assay: Isolated rabbit thoracic aorta, antispasmodic activity vs. potassium chloride; type: cell-based, rabbit (New Zealand White); details: for Antispasmodic Potency: potency relative to papaverine (equals one), from pA2 vs. potassium chloride; for antispasmodic activity (in words) / antispasmodic potency relative to prior art compounds A and B: potassium chloride-induced spasms
Experimental: (§1) Test Method. Antispasmodic activity was assessed in vitro by determining the effect of the test substance on induced contraction of arterial smooth muscle as follows. Adult, male, New Zealand White rabbits (body weight 2.5-4 kg.) were used. Each rabbit was killed by i.v. air injection. The thorax was opened and the descending thoracic aorta removed and placed in Kreb's-bicarbonate solution. Extraneous tissue was removed and the aorta was cut spirally along its entire length. Four spiral segments, each approximately 2 cm. in length (unstretched), were obtained from each thoracic aorta. […] The bath medium surrounding the aortic spiral (Kreb's-bicarbonate solution) was maintained at 37.5°C. and constantly aerated with 95% O2 :5% CO2. Activity of the aortic smooth muscle was recorded on an electronic polygraph via its connection to the tension transducer. After an equilibration period of 60 min., a cumulative dose-response curve was obtained to an agonist (e.g. potassium chloride or norepinephrine) and the tissue then washed. Seventy-five min. later, a second cumulative dose-response curve to the agonist was obtained and the tissue washed again. Sixty min. later, a test drug solution was added to the tissue bath fluid and, after 15 min., drug exposure and, without washing, a third and final agonist-response curve was obtained. All additions to the bath fluid were 0.1 ml. volumes of aqueous solutions.

alpha-adrenergic = assay: Isolated rabbit thoracic aorta, antispasmodic (anti-alpha-adrenergic) activity vs. norepinephrine; type: cell-based, rabbit (New Zealand White); details: norepinephrine as agonist
Experimental: as §1, with “solutions. […] Selective activity against norepinephrine-induced spasms is indicative of alpha-adrenergic blocking (i.e. antispasmodic) activity. […] Phentolamine is an alpha-adrenergic blocking agent and a standard reference in the art. […] This experiment illustrates that the instant compounds are non-anti-alpha-adrenergic antispasmodic agents in that they have a substantial direct smooth muscle relaxant effect (as shown in Example 34) relatively uncomplicated by any significant selective alpha-adrenergic blocking effect.” for “solutions.”

[2] = infusion rate 0.3 mg./min., side-by-side comparison in same animals
[3] = infusion rate 1.0 mg./min., side-by-side comparison in same animals

T1 sequence (Q8K4Z4 whole entry): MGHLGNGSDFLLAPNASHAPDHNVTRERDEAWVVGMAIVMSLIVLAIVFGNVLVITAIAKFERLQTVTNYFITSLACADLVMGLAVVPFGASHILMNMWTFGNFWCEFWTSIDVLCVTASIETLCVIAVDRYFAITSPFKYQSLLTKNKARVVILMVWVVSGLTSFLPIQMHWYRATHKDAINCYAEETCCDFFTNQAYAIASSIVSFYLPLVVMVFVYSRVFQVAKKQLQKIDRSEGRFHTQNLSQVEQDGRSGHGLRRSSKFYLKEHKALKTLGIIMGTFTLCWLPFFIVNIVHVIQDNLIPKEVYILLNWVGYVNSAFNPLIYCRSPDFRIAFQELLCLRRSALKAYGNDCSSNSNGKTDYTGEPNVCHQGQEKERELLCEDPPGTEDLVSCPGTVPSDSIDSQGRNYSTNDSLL

Row | Beta-Adrenergic Blocking Potency (adrenergic beta-receptor) | SMILES | ED50 ADP (inhibition of platelet aggregation) [1] | ED50 Coll (inhibition of platelet aggregation) [1] | Pressure Decrease (perfused dog hind limb; infusion rate 0.3 mg./min.) | Pressure Decrease (perfused dog hind limb; infusion rate 1.0 mg./min.) | Antispasmodic Potency (rabbit thoracic aorta) | anti-alpha-adrenergic activity (in words) (alpha-adrenergic) | beta-adrenergic blocking activity (in words) (adrenergic beta-receptor) | pressure reduction (findings, range over compounds) (perfused dog hind limb) | Pressure Decrease (perfused dog hind limb; [2]) | Pressure Decrease (perfused dog hind limb; [3]) | antispasmodic activity (in words) (rabbit thoracic aorta) | anti-alpha-adrenergic activity relative to phentolamine (alpha-adrenergic) | antispasmodic potency relative to prior art compounds A and B (rabbit thoracic aorta)
1 | < 0.0006 | CC(C)Sc1ccc(OCC(O)CNCCC2CCCCC2)cc1 (stereo not shown) [Example 5, 1-[(2-cyclohexylethyl)amino]-3-[4-[(1-methylethyl)thio]phenoxy]-2-propanolhydrochloride] | 56 Microgram/0.5 ml. plateletrich human plasma | 47 Microgram/0.5 ml. plateletrich human plasma | -63 Millimeters of mercury | -87 Millimeters of mercury | 2.4 |  |  |  |  |  |  |  | 
2 | 0.2 | CSc1ccc(OCC(O)CNC(C)C)cc1 (stereo not shown) [Test agent B, 1-(isopropylamino)-3-[4-(methylthio)phenoxy]-2-propanol, reference compound] | 107 Microgram/0.5 ml. plateletrich human plasma | 28 Microgram/0.5 ml. plateletrich human plasma |  |  | 0.04 | essentially inactive | substantial activity | 27-29 mm Hg | -3 Millimeters of mercury | -29 Millimeters of mercury | relatively weak activity |  | 
3 | < 0.0006 | CCCCCCCCNCC(O)COc1ccc(SC)cc1C (stereo not shown) [Example 7, 1-[2-methyl-4-(methylthio)phenoxy]-3-(octylamino)-2-propanol] | 82 Microgram/0.5 ml. plateletrich human plasma | 39 Microgram/0.5 ml. plateletrich human plasma | -56 Millimeters of mercury | -80 Millimeters of mercury | 0.8 |  |  |  |  |  |  |  | 
4 |  | COc1ccc(Cc2nccc3cc(OC)c(OC)cc23)cc1OC [Papaverine, reference compound] |  |  | -31 Millimeters of mercury |  |  |  |  |  |  |  |  |  | 
5 | < 0.001 | CCCCCCCCNCC(O)COc1ccc(SC)cc1 (stereo not shown) [Example 1, 1-[4-(Methylthio)phenoxy]-3-(octylamino)-2-propanol] | 69 Microgram/0.5 ml. plateletrich human plasma | 42 Microgram/0.5 ml. plateletrich human plasma | -22 Millimeters of mercury | -59 Millimeters of mercury |  |  |  |  |  |  |  |  | 
6 | < 0.002 | CC(C)Sc1ccc(OCC(O)CNCCCCC2CCCCC2)cc1 (stereo not shown) [Example 6, 1-[(4-cyclohexylbutyl)amino]-3-[4-[(1-methylethyl)thio]phenoxy]-2-propanolhydrochloride] | 53 Microgram/0.5 ml. plateletrich human plasma | 29 Microgram/0.5 ml. plateletrich human plasma | -47 Millimeters of mercury | -74 Millimeters of mercury | 0.02 |  |  |  |  |  |  |  | about 1/2

Row | SMILES | Beta-Adrenergic Blocking Potency (adrenergic beta-receptor) | ED50 ADP (inhibition of platelet aggregation) [1] | ED50 Coll (inhibition of platelet aggregation) [1] | Pressure Decrease (perfused dog hind limb; infusion rate 0.3 mg./min.) | Pressure Decrease (perfused dog hind limb; infusion rate 1.0 mg./min.) | Antispasmodic Potency (rabbit thoracic aorta) | anti-alpha-adrenergic activity (in words) (alpha-adrenergic) | beta-adrenergic blocking activity (in words) (adrenergic beta-receptor) | pressure reduction (findings, range over compounds) (perfused dog hind limb) | Pressure Decrease (perfused dog hind limb; [2]) | Pressure Decrease (perfused dog hind limb; [3]) | antispasmodic activity (in words) (rabbit thoracic aorta) | anti-alpha-adrenergic activity relative to phentolamine (alpha-adrenergic) | antispasmodic potency relative to prior art compounds A and B (rabbit thoracic aorta)
7 | CCCCCCCCNCC(O)COc1ccccc1SC.Cl (stereo not shown) [Example 8, 1-[2-(Methylthio)phenoxy]-3-(octylamino)-2-propanol Hydrochloride] | 0.004 | 65 Microgram/0.5 ml. plateletrich human plasma | 32 Microgram/0.5 ml. plateletrich human plasma | -15 Millimeters of mercury | -64 Millimeters of mercury | 2.6 |  |  |  |  |  |  | 1-2% | 
8 | CCCCCCCCNCC(O)COc1cccc(SC(C)C)c1.Cl (stereo not shown) [Example 3, 1-[3-[(1-Methylethyl)thio]phenoxy]-3-(octylamino)-2-propanol Hydrochloride] | < 0.001 | 53 Microgram/0.5 ml. plateletrich human plasma | 24 Microgram/0.5 ml. plateletrich human plasma | -20 Millimeters of mercury | -87 Millimeters of mercury | 0.7 |  |  |  |  |  |  |  | 
9 | CCCCCCCCCCCCNCC(O)COc1ccc(SC(C)C)cc1.Cl (stereo not shown) [Example 4, 1-[4-[(1-Methylethyl)thio]phenoxy]-3-(dodecylamino)-2-Propanol Hydrochloride] | < 0.001 |  |  |  |  | 0.08 |  |  |  |  |  |  |  | twice as potent
10 | CSc1ccccc1OCC(O)CNC(C)C (stereo not shown) [Test agent A, 1-(isopropylamino)-3-[2-(methylthio)phenoxy]-2-propanol, reference compound] | 1.0 | 137 Microgram/0.5 ml. plateletrich human plasma | 33 Microgram/0.5 ml. plateletrich human plasma |  |  | 0.04 |  | substantial activity | 27-29 mm Hg | -20 Millimeters of mercury | -27 Millimeters of mercury | relatively weak activity | 1-2% | 
